Broadly, the Ki is the dissociation constant of the complex between target and ligand, obtained from inhibition or displacement.

One test concerns the target T1, α1B adrenoceptor (Rattus norvegicus, UniProt P15823).
T1 construct: from tissue; host or cells: rat liver membranes
T1 sequence (P15823 1-515): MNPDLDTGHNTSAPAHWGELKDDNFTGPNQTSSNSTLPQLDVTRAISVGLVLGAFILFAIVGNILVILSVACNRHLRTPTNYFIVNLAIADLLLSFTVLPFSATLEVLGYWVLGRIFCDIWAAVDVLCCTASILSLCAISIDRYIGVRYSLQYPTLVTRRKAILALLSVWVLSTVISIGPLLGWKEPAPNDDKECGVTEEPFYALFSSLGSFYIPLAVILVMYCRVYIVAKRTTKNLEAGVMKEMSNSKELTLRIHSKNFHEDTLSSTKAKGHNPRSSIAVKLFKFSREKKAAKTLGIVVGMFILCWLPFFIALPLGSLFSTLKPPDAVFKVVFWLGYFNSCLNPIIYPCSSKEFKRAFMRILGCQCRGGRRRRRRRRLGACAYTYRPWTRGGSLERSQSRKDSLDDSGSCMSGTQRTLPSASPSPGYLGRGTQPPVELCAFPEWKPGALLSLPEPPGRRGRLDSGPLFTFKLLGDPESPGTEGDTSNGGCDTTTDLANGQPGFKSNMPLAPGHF
Kind of test: Radioligand binding, [3H] prazosin displacement, rat liver membranes. To be noted: read-out: Affinity (Ki) α1B (Rat Liver). Summed up:
(§1)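 Displacement of [3H]prazosin measured by filtration and counting, with Ki from IC50 via Cheng–Prusoff and nonspecific binding set by 300 nM prazosin. Native rat submaxillary (α1A) or liver (α1B) membranes, 150-250 μg protein, 1 h at 24-25° C in Tris/EDTA pH 7.4.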

In test [1] the target is T2, α1B adrenoceptor (spleen) (Rattus norvegicus, UniProt P15823).
T2 construct: Isolated tissues were mounted in organ bath containing Krebs Henseleit buffer; from tissue; host or cells: isolated rat spleen
T2 sequence (P15823 1-515): T1 sequence (P15823 1-515)
As to the kind of experiment: In vitro functional assay, isolated spleen, phenylepinephrine contraction. The format is cell-based. Conditions: read-out: α Adrenoceptor Subtype (pKB) α1B (converted). The text has this:
(§2) In order to study selectivity of action of these compounds towards different a-adrenoceptor subtypes, the ability of these compounds to antagonise (α1D) prostate (α1A) and spleen (α1B) was studied. Aorta and spleen tissues were isolated from urethane anaesthetized (1.5 g/kg) male wister rats. Isolated tissues were mounted in organ bath containing Krebs Henseleit buffer of the following composition (mM): NaCl 118; KCl 4.7; CaCl2 2.5; MgSO4 7H2O 1.2; NaHCO3 25; KH2PO4 1.2; glucose 11.5. Buffer was maintained at 37° C. and aereated with a mixture of 95% O2 and 5% CO2. A resting tension of 2 g (aorta) or 1 g (spleen and prostate) was applied to tissues. Contractile response was monitored using a force displacement transducer and recorded on chart recorders. Tissues were allowed to equilibrate for 2 hours. At the end of equilibration period, concentration response curves to norepinephrine (aorta) and phenylepinephrine (spleen and prostate) were obtained in the absence and presence of tested compound (at concentration of […]). Antagonist affinity was calculated and expressed as pKB values in Table II.

The next test concerns the target T3, α1D adrenoceptor (aorta) (Rattus norvegicus, UniProt P23944).
T3 construct: Isolated tissues were mounted in organ bath containing Krebs Henseleit buffer; from tissue; host or cells: isolated rat aorta
T3 sequence (P23944 1-561): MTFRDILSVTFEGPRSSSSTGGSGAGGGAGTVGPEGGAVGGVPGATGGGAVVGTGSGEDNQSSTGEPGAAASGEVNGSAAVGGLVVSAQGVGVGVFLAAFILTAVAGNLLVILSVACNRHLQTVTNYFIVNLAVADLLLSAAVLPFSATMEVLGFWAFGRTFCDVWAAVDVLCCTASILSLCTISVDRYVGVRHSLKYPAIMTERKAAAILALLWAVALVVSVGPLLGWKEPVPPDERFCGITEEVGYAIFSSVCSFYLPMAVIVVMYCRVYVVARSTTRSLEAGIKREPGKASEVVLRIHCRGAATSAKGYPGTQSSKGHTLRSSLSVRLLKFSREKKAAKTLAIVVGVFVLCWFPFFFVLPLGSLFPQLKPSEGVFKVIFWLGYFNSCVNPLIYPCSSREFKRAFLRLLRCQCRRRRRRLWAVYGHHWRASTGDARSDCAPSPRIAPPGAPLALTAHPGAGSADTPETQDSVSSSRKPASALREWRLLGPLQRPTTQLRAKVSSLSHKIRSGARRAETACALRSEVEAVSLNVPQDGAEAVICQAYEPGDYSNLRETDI
Kind of test: In vitro functional assay, isolated aorta, norepinephrine contraction. Conditions: read-out: α Adrenoceptor Subtype (pKB) α1D (converted). The format is cell-based.
From the text: as §2

The next test addresses T4, α1A adrenoceptor (Rattus norvegicus, UniProt P43140).
T4 construct: from tissue; host or cells: rat submaxillary gland membranes
T4 sequence (P43140 1-466): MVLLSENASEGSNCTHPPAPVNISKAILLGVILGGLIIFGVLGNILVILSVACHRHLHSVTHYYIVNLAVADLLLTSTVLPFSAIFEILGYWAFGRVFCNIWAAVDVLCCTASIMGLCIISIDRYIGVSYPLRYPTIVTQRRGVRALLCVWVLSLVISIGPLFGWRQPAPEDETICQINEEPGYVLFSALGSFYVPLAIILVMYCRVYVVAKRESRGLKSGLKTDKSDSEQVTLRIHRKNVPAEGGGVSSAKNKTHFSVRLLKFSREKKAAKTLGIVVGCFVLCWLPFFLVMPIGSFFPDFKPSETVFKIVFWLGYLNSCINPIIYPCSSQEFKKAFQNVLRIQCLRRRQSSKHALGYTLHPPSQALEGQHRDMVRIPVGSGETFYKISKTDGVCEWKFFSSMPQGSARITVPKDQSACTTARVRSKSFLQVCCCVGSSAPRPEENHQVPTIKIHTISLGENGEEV
As to the kind of experiment: Radioligand binding, [3H] prazosin displacement, rat submaxillary membranes. Conditions: for Ki: [3H] prazosin displacement, rat submaxillary membranes, read-out: Affinity (Ki) α1A (Rat Submaxillary); for α1B/α1A: ratio of binding affinities, rat liver / rat submaxillary. Summed up: as §1

Test [2] addresses T5, α1A adrenoceptor (prostate) (Rattus norvegicus, UniProt P43140).
T5 construct: from tissue; host or cells: isolated prostate tissue
T5 sequence (P43140 1-466): T4 sequence (P43140 1-466)
As to the kind of experiment: In vitro functional assay, isolated prostate, phenylepinephrine contraction. The format is cell-based. To be noted: for Selectivity α1B/α1A / Selectivity α1D/α1A: functional, from pKB; for Kb: rat prostate, phenylepinephrine, read-out: α Adrenoceptor Subtype (pKB) α1A (converted).
From the text: as §2

Molecules are shown by their SMILES. Where a name gives a salt, the structure may show the parent alone.

Take `CC(C)Oc1ccccc1N1CCN(CCCN2C(=O)C3CC(O)C(O)CC3C2=O)CC1` (centres unmarked) [Compound No. 13, 2-[3-{4-(2-Isopropoxyphenyl)piperazin-1-yl}propyl]-5,6-dihydroxy-3a,4,5,6,7,7a-hexahydro-1H-isoindole-1,3(2H)-dione]: the Ki on α1B adrenoceptor worked out at 85 nM. The Kb in test [1] was 55 nM. For the same compound, on α1D adrenoceptor (aorta), the Kb was 2.29 nM. In addition, at α1A adrenoceptor, the Ki turned out to be 0.36 nM and the α1B/α1A amounted to 236. For the same compound, in test [2], the “Selectivity α1B/α1A” value is listed as 17, the “Selectivity α1D/α1A” value is 0.7 and the Kb is 3.24 nM.
Turning to `CC(C)Oc1ccccc1N1CCN(CCCN2C(=O)C3CC4OC4CC3C2=O)CC1` (centres unmarked) [Compound No. 19, 2-[3-{4-(2-Isopropoxyphenyl)piperazin-1-yl}propyl]-5,6-epoxy-3a,4,5,6,7,7a-hexahydro-1H-isoindole-1,3(2H)-dione], the Ki was 104 nM on α1B adrenoceptor and 0.23 nM on α1A adrenoceptor. Moreover, the Kb is 69.2 nM in test [1], 2.69 nM on α1D adrenoceptor (aorta) and 0.794 nM in test [2]. Moreover, on α1A adrenoceptor, the α1B/α1A is on record as 452. Also, the “Selectivity α1B/α1A” value in test [2] was determined as 87. The “Selectivity α1D/α1A” value in test [2] is listed as 3.4.
`CC(C)Oc1ccccc1N1CCN(CCCN2C(=O)C3CCC(O)CC3C2=O)CC1` (centres unmarked) [Compound No. 20, 2-[3-{4-(2-Isopropoxyphenyl)piperazin-1-yl}propyl]-5-hydroxy-3a,4,5,6,7,7a-hexahydro-1H-isoindole-1,3(2H)-dione]: on α1B adrenoceptor, the Ki is 92 nM. In test [1], the Kb is 102 nM. Besides, the Kb at α1D adrenoceptor (aorta) was 1.07 nM. Besides, on α1A adrenoceptor, the inhibition constant (Ki) is 0.28 nM and the α1B/α1A came out at 328. In addition, in test [2], the “Selectivity α1B/α1A” value came to 240, the “Selectivity α1D/α1A” value is recorded as 2.5 and the Kb is 0.427 nM.
Turning to `CC(C)Oc1ccc(O)cc1N1CCN(CCCN2C(=O)C3CC=CCC3C2=O)CC1.Cl` (centres unmarked) [Compound No. 21, 2-[3-{4-(2-Isopropoxy-5-hydroxyphenyl)piperazin-1-yl}propyl]-3a,4,7,7a-tetrahydro-1H-isoindole-1,3(2H)-dione hydrochloride], the Ki on α1B adrenoceptor came out at 643 nM. Besides, the Kb in test [1] was 70.8 nM. The Kb at α1D adrenoceptor (aorta) is 24.5 nM. On α1A adrenoceptor, the Ki is 3.4 nM and the α1B/α1A came out at 189. In test [2], the “Selectivity α1B/α1A” value worked out at 15, the “Selectivity α1D/α1A” value came to 5.24 and the Kb is 4.68 nM.
As for `CC(C)Oc1cc([N+](=O)[O-])ccc1N1CCN(CCCN2C(=O)C3CC=CCC3C2=O)CC1` (centres unmarked) [Compound No. 25, 2-[3-{4-(2-Isopropoxy-4-nitrophenyl)piperazin-1-yllpropyl]-3a,4,7,7a-tetrahydro-1H-isoindole-1,3(2H)-dione hydrochloride], the Ki at α1B adrenoceptor amounted to 173 nM. The Kb in test [1] was 100 nM. Also, the Kb at α1D adrenoceptor (aorta) was 4.27 nM. Also, on α1A adrenoceptor, the Ki amounted to 0.86 nM and the α1B/α1A is given as 201. Further, in test [2], the “Selectivity α1B/α1A” value turned out to be 22, the “Selectivity α1D/α1A” value was 0.93 and the Kb was 4.57 nM.
Take `CC(C)Oc1ccccc1N1CCN(CCCN2C(=O)C3CC(O)C(Cl)CC3C2=O)CC1.Cl` (centres unmarked) [Compound No. 28, 2-[3-{4-(2-Isopropoxyphenyl)piperazin-1-yl}propyl]-5-chloro-6-hydroxy-3a,4,5,6,7,7a-hexahydro-1H-isoindole-1,3(2H)-dione hydrochloride]: the inhibition constant (Ki) on α1B adrenoceptor was 41 nM; on α1A adrenoceptor it was 0.24 nM. Moreover, the Kb in test [1] was 43.7 nM; at α1D adrenoceptor (aorta) it was 1.41 nM; in test [2], 0.977 nM. Moreover, the α1B/α1A at α1A adrenoceptor is given as 171. Moreover, the “Selectivity α1B/α1A” value in test [2] came to 45. For the same compound, in test [2], the “Selectivity α1D/α1A” value was 1.4.
In the case of `Cl.O=C1C2CCC(O)CC2C(=O)N1CCCN1CCN(c2ccccc2OCC(F)(F)F)CC1` (centres unmarked) [Compound No. 33, 2-[3-{4-(2-(2,2,2-Trifluoroethoxy)phenyl)piperazin-1-yl}propyl]-5-hydroxy-3a,4,5,6,7,7a-hexahydro-1H-isoindole-1,3(2H)-dione hydrochloride], the Ki at α1B adrenoceptor came out at 34 nM. The Kb in test [1] was 11 nM. For the same compound, on α1D adrenoceptor (aorta), the Kb is 1.58 nM. Moreover, on α1A adrenoceptor, the Ki turned out to be 0.24 nM and the α1B/α1A stood at 142. In test [2], the “Selectivity α1B/α1A” value came out at 18, the “Selectivity α1D/α1A” value is listed as 2.6 and the Kb is 0.603 nM.
`Cl.O=C1C2CC=CCC2C(=O)N1CCCN1CCN(c2ccccc2OC2CCCC2)CC1` (centres unmarked) [Compound No. 43, 2-[3-{4-(2-Cyclopentyloxyphenyl)piperazin-1-yl}propyl]-3a,4,7,7a-tetrahydro-1H-isoindole-1,3(2H)-dione hydrochloride]: the Ki at α1B adrenoceptor stood at 50 nM; on α1A adrenoceptor, 0.5 nM. Besides, the Kb is 12.6 nM in test [1], 0.741 nM at α1D adrenoceptor (aorta) and 1.7 nM in test [2]. On α1A adrenoceptor, the α1B/α1A was 100. In addition, the “Selectivity α1B/α1A” value in test [2] was found to be 7.4. Besides, the “Selectivity α1D/α1A” value in test [2] is 0.43.
Take `Cl.O=C1CCCC(=O)N1CCCN1CCN(c2ccccc2O)CC1` [compound 01, 1-[4-(2-Hydroxyphenyl)piperazin-1-yl]-3-(2,6-dioxopiperidin-1-yl)propane hydrochloride]: the Ki on α1B adrenoceptor was determined as 80 nM; at α1A adrenoceptor, 8.55 nM. The values for the Kb (in test [1]; on α1D adrenoceptor (aorta); in test [2]) were 38 nM, 12 nM and 10 nM, respectively. Further, the α1B/α1A on α1A adrenoceptor was 9. Besides, the “Selectivity α1B/α1A” value in test [2] came out at 3.8. Moreover, the “Selectivity α1D/α1A” value in test [2] turned out to be 1.2.
Consider `Cl.O=C1C2CC=CCC2C(=O)N1CCCN1CCN(c2ccccc2OCC(F)(F)F)CC1` (centres unmarked) [compound 02, 2-[3-{4-(2-(2,2,2-Trifluoroethoxy)phenyl)piperazin-1-yl}propyl]-3a, 4,7,7a-tetrahydro-1H-isoindole-1,3(2H)-dione hydrochloride], for which the Ki at α1B adrenoceptor was 27 nM. For the same compound, the Kb in test [1] was 1.29 nM. In addition, the Kb at α1D adrenoceptor (aorta) was 0.0316 nM. Besides, at α1A adrenoceptor, the Ki amounted to 0.17 nM and the α1B/α1A was 159. For the same compound, in test [2], the “Selectivity α1B/α1A” value was 7.07, the “Selectivity α1D/α1A” value is 0.17 and the Kb was 0.182 nM.

(Values after patent US20050228180A1, “Alpha, omega-dicarboximide derivatives as useful uro-selective a1a adrenoceptor blockers” (priority 2002, published 2005).)
